Laboratory results reported in patent publication US9290485B2, “N-((6-amino-pyridin-3-yl)methyl)-heteroaryl-carboxamides” (NOVARTIS AG, priority 2010, dated 2016).

What follows are molecules tested against human plasma kallikrein (Homo sapiens (Human), UniProt P03952). Settings: human plasma kallikrein 25 pM, substrate 0.5 uM, 1 hour pre-incubation at room temperature, read at t=60 min.
human plasma kallikrein, sequence (P03952 whole entry, looked up): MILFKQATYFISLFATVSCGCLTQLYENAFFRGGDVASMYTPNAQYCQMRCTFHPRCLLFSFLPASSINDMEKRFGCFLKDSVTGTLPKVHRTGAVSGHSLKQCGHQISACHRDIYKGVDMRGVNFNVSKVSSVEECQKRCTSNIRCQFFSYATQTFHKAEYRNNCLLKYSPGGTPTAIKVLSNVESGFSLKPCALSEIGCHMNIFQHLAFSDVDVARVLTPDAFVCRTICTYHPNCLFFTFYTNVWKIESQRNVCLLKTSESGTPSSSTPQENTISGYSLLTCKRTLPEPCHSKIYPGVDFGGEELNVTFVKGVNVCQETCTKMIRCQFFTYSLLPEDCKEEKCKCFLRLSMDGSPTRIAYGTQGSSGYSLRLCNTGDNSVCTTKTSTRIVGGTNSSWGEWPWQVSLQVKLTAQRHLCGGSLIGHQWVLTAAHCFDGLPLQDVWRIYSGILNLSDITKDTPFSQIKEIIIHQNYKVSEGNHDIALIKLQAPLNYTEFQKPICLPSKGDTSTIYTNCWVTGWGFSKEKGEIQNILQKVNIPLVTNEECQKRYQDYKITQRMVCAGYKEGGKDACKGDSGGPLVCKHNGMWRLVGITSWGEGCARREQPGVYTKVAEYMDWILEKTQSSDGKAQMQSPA
human plasma kallikrein, sequence (P03952 whole entry partner, looked up): as the sequence (P03952 whole entry, looked up) above

Q: How did the IC50 turn out when `Cc1cc(N)nc(C)c1CNC(=O)c1ccn(S(=O)(=O)c2ccc3c(ccn3C)c2)c1` [Example 131, N-((6-amino-2,4-dimethylpyridin-3-yl)methyl)-1-(1-methyl-1H-indol-5-ylsulfonyl)-1H-pyrrole-3-carboxamide] was run?
A: Its IC50 is 9 nM.

Q: For `Cc1cc(N)nc(C)c1CNC(=O)c1cnn(Cc2ccc3ccccc3c2)c1` [Example 83, N-((6-amino-2,4-dimethylpyridin-3-yl)methyl)-1-(naphthalen-2-ylmethyl)-1H-pyrazole-4-carboxamide], which IC50 is on record?
A: The IC50 was 18 nM.

Q: How did the IC50 turn out when `Cc1cc(N)nc(C)c1CNC(=O)c1cnn(Cc2ccc(Cn3cccn3)cc2)c1` [Example 145, 1-(4-((1H-pyrazol-1-yl)methyl)benzyl)-N-((6-amino-2,4-dimethylpyridin-3-yl)methyl)-1H-pyrazole-4-carboxamide] was run?
A: The IC50 was 0.2 nM.

Q: How did the IC50 turn out when `Cc1nc(N)cc(Cl)c1CNC(=O)c1cnn(Cc2ccc3ccccc3c2)c1` [Example 172, N-((6-amino-4-chloro-2-methylpyridin-3-yl)methyl)-1-(naphthalen-2-ylmethyl)-1H-pyrazole-4-carboxamide] was run?
A: The IC50 was 60 nM.

Q: `Cc1cc(N)nc(C)c1CNC(=O)c1cnn(Cc2ccc3c(c2)N(C)C(=O)CO3)c1` [Example 151, N-((6-Amino-2,4-dimethylpyridin-3-yl)methyl)-1-((4-methyl-3-oxo-3,4-dihydro-2H-benzo[b][1,4]oxazin-6-yl)methyl)-1H-pyrazole-4-carboxamide] was tested. Which IC50 did it give?
A: The IC50 was 13 nM.

Q: `Cc1ccc2cc(Cn3cc(C(=O)NCc4c(C)cc(N)nc4C)cn3)ccc2n1` [Example 154, N-((6-amino-2,4-dimethylpyridin-3-yl)methyl)-1-((2-methylquinolin-6-yl)methyl)-1H-pyrazole-4-carboxamide] was tested. Which IC50 did it give?
A: Its IC50 is 2 nM.

Q: Which IC50 does the source give for `Cc1cc(N)nc(C)c1CNC(=O)c1ccn(S(=O)(=O)c2ccc(Cl)s2)c1` [Example 128, N-((6-amino-2,4-dimethylpyridin-3-yl)methyl)-1-(5-chlorothiophen-2-ylsulfonyl)-1H-pyrrole-3-carboxamide] here?
A: The IC50 was 301 nM.

Q: With `Cc1cc(N)nc(C)c1CNC(=O)c1cnn(Cc2csc(Cc3ccccc3)n2)c1` [Example 27, N-((6-amino-2,4-dimethylpyridin-3-yl)methyl)-1-((2-benzylthiazol-4-yl)methyl)-1H-pyrazole-4-carboxamide] as the molecule, how does the IC50 read?
A: The IC50 was 21 nM.

Q: How did the IC50 turn out when `Cc1cc(N)nc(C)c1CNC(=O)c1cnn(Cc2coc(-c3ccccc3)n2)c1` [Example 32, N-((6-amino-2,4-dimethylpyridin-3-yl)methyl)-1-((2-phenyloxazol-4-yl)methyl)-1H-pyrazole-4-carboxamide] was run?
A: The IC50 was 41 nM.

Q: Which IC50 does the source give for `Cc1cc(N)nc(C)c1CNC(=O)c1cnn(Cc2cccc(F)c2)c1` [Example 84, N-((6-amino-2,4-dimethylpyridin-3-yl)methyl)-1-(3-fluorobenzyl)-1H-pyrazole-4-carboxamide] here?
A: The IC50 was 498 nM.

Q: Which IC50 does the source give for `Cc1cc(N)nc(C)c1CNC(=O)c1cn(Cc2ncccn2)nn1` [Example 178, N-((6-Amino-2,4-dimethylpyridin-3-yl)methyl)-1-(pyrimidin-2-ylmethyl)-1H-1,2,3-triazole-4-carboxamide] here?
A: The IC50 was 67300 nM.

Q: `Cc1cc(N)nc(C)c1CNC(=O)c1ccn(Cc2ccccc2)c1C` [Example 179, N-((6-Amino-2,4-dimethylpyridin-3-yl)methyl)-1-benzyl-2-methyl-1H-pyrrole-3-carboxamide] was tested. Which IC50 did it give?
A: The IC50 was 85800 nM.

Q: How did the IC50 turn out when `Cc1cc(C)n(Cc2ccc(Cn3cc(C(=O)NCc4c(C)cc(N)nc4C)nn3)cc2)n1` [Example 148, N-((6-amino-2,4-dimethylpyridin-3-yl)methyl)-1-(4-((3,5-dimethyl-1H-pyrazol-1-yl)methyl)benzyl)-1H-1,2,3-triazole-4-carboxamide] was run?
A: Its IC50 is 0.03 nM.

Q: `Cc1cc(N)nc(C)c1CNC(=O)c1n[nH]c([C@@H](N)c2ccccc2)n1` [Example 123, (S)-5-(amino(phenyl)methyl)-N-((6-amino-2,4-dimethylpyridin-3-yl)methyl)-1H-1,2,4-triazole-3-carboxamide] was tested. Which IC50 did it give?
A: The IC50 was 15800 nM.

Q: For `COc1cccc(S(=O)(=O)n2ccc(C(=O)NCc3c(C)cc(N)nc3C)c2)c1` [Example 129, N-((6-amino-2,4-dimethylpyridin-3-yl)methyl)-1-(3-methoxyphenylsulfonyl)-1H-pyrrole-3-carboxamide], which IC50 is on record?
A: Its IC50 is 244 nM.

Q: `Cc1cc(N)nc(C)c1CNC(=O)c1cnn(Cc2ccc(C(=O)Nc3ccn(C)n3)cc2)c1` [Example 122, N-((6-amino-2,4-dimethylpyridin-3-yl)methyl)-1-(4-(1-methyl-1H-pyrazol-3-ylcarbamoyl)benzyl)-1H-pyrazole-4-carboxamide] was tested. Which IC50 did it give?
A: The IC50 was 752 nM.

Q: For `Cc1cc(N)nc(C)c1CNC(=O)c1cnn(Cc2ccc(F)cc2F)c1` [Example 93, N-((6-amino-2,4-dimethylpyridin-3-yl)methyl)-1-(2,4-difluorobenzyl)-1H-pyrazole-4-carboxamide], which IC50 is on record?
A: The IC50 was 674 nM.

Q: Which IC50 does the source give for `Cc1cc(N)nc(C)c1CNC(=O)c1cnn(Cc2ccnc(N3CCOCC3)c2)c1` [Example 69, N-((6-amino-2,4-dimethylpyridin-3-yl)methyl)-1-((2-morpholinopyridin-4-yl)methyl)-1H-pyrazole-4-carboxamide] here?
A: Its IC50 is 1600 nM.

Q: How did the IC50 turn out when `Cc1cc(N)nc(C)c1CNC(=O)c1cn(Cc2ccccc2)nc1C` [Example 49, N-((6-amino-2,4-dimethylpyridin-3-yl)methyl)-1-benzyl-3-methyl-1H-pyrazole-4-carboxamide] was run?
A: Its IC50 is 679 nM.

Q: For `Cc1cc(N)nc(C)c1CNC(=O)c1cn(Cc2cccc(Cn3ccnc3)c2)nn1` [Example 46, 1-(3-((1H-imidazol-1-yl)methyl)benzyl)-N-((6-amino-2,4-dimethylpyridin-3-yl)methyl)-1H-1,2,3-triazole-4-carboxamide], which IC50 is on record?
A: The IC50 was 1100 nM.

Q: Which IC50 does the source give for `Cc1cc(N)nc(C)c1CNC(=O)c1nnc(Cc2ccccc2)o1` [Example 4, N-((6-amino-2,4-dimethylpyridin-3-yl)methyl)-5-benzyl-1,3,4-oxadiazole-2-carboxamide] here?
A: Its IC50 is 7600 nM.

Q: With `Cc1cc(N)nc(C)c1CNC(=O)c1cnn(Cc2ccncc2)c1` [Example 18, N-((6-amino-2,4-dimethylpyridin-3-yl)methyl)-1-(pyridin-4-ylmethyl)-1H-pyrazole-4-carboxamide] as the molecule, how does the IC50 read?
A: The IC50 was 1100 nM.

Q: `Cc1cc(N)nc(C)c1CNC(=O)c1cnn(Cc2ccc(Cl)cc2)c1` [Example 96, N-((6-amino-2,4-dimethylpyridin-3-yl)methyl)-1-(4-chlorobenzyl)-1H-pyrazole-4-carboxamide] was tested. Which IC50 did it give?
A: The IC50 was 291 nM.

Q: `Cc1cc(N)nc(C)c1CNC(=O)c1n[nH]c(Cc2ccccc2)n1` [Example 113, N-((6-amino-2,4-dimethylpyridin-3-yl)methyl)-5-benzyl-1H-1,2,4-triazole-3-carboxamide] was tested. Which IC50 did it give?
A: The IC50 was 5800 nM.

Q: For `Cc1cc(N)nc(C)c1CNC(=O)c1cn(Cc2ccc(Oc3ccccc3)cc2)nn1` [Example 38, N-((6-amino-2,4-dimethylpyridin-3-yl)methyl)-1-(4-phenoxybenzyl)-1H-1,2,3-triazole-4-carboxamide], which IC50 is on record?
A: The IC50 was 19 nM.

Q: How did the IC50 turn out when `Cc1cc(N)nc(C)c1CNC(=O)c1ncn(Cc2ccc(Cn3cncn3)cc2)n1` [Example 59] was run?
A: The IC50 was 209 nM.

Q: With `Cc1cc(N)nc(C)c1CNC(=O)c1nc(Cc2ccc(-c3ccccc3)cc2)n[nH]1` [Example 124, N-((6-amino-2,4-dimethylpyridin-3-yl)methyl)-3-(biphenyl-4-ylmethyl)-1H-1,2,4-triazole-5-carboxamide] as the molecule, how does the IC50 read?
A: Its IC50 is 71 nM.

Q: How did the IC50 turn out when `Cc1cc(N)nc(C)c1CNC(=O)c1ncn(Cc2cccc(-n3cccn3)c2)n1` [Example 67, 1-(3-(1H-pyrazol-1-yl)benzyl)-N-((6-amino-2,4-dimethylpyridin-3-yl)methyl)-1H-1,2,4-triazole-3-carboxamide] was run?
A: The IC50 was 60 nM.

Q: With `Cc1cc(N)nc(C)c1CNC(=O)c1cnn(Cc2ccc(OCC(=O)O)cc2)c1` [Example 134, 2-(4-((4-((6-amino-2,4-dimethylpyridin-3-yl)methylcarbamoyl)-1H-pyrazol-1-yl)methyl)phenoxy)acetic acid] as the molecule, how does the IC50 read?
A: The IC50 was 1100 nM.

Q: With `Cc1cc(N)nc(C)c1CNC(=O)c1cnn(Cc2nc3ccccc3s2)c1` [Example 105, N-((6-amino-2,4-dimethylpyridin-3-yl)methyl)-1-(benzo[d]thiazol-2-ylmethyl)-1H-pyrazole-4-carboxamide] as the molecule, how does the IC50 read?
A: Its IC50 is 168 nM.

Q: For `Cc1cc(N)nc(C)c1CNC(=O)c1ncn(Cc2ccc3ccccc3c2)n1` [Example 64, N-((6-amino-2,4-dimethylpyridin-3-yl)methyl)-1-(naphthalen-2-ylmethyl)-1H-1,2,4-triazole-3-carboxamide], which IC50 is on record?
A: Its IC50 is 14 nM.

Q: Which IC50 does the source give for `Cc1nc(N)ccc1CNC(=O)c1cnn(Cc2cc(C(F)(F)F)c3cc(F)ccc3n2)c1` [Example 160, N-((6-amino-2-methylpyridin-3-yl)methyl)-1-((6-fluoro-4-(trifluoromethyl)quinolin-2-yl)methyl)-1H-pyrazole-4-carboxamide] here?
A: The IC50 was 20 nM.

Q: Which IC50 does the source give for `Cc1cc(N)nc(C)c1CNC(=O)c1cnn(S(=O)(=O)c2cccc(C#N)c2)c1` [Example 37, N-((6-amino-2,4-dimethylpyridin-3-yl)methyl)-1-(3-cyanophenylsulfonyl)-1H-pyrazole-4-carboxamide] here?
A: Its IC50 is 5300 nM.

Q: With `Cc1cc(N)nc(C)c1CNC(=O)c1cnn(Cc2cccc(C#N)c2)c1` [Example 81, N-((6-amino-2,4-dimethylpyridin-3-yl)methyl)-1-(3-cyanobenzyl)-1H-pyrazole-4-carboxamide] as the molecule, how does the IC50 read?
A: The IC50 was 411 nM.

Q: `Cc1cc(N)nc(C)c1CNC(=O)c1cnn(Cc2ccc(Cn3c(C)cc(=O)n3C)cc2)c1` [Example 141, N-((6-amino-2,4-dimethylpyridin-3-yl)methyl)-1-(4-((2,5-dimethyl-3-oxo-2,3-dihydro-1H-pyrazol-1-yl)methyl)benzyl)-1H-pyrazole-4-carboxamide] was tested. Which IC50 did it give?
A: Its IC50 is 1.2 nM.

Q: `Cc1cc(N)nc(C)c1CNC(=O)c1ccn(S(=O)(=O)c2ccc(-c3ccccc3)cc2)c1` [Example 127, N-((6-amino-2,4-dimethylpyridin-3-yl)methyl)-1-(biphenyl-4-ylsulfonyl)-1H-pyrrole-3-carboxamide] was tested. Which IC50 did it give?
A: Its IC50 is 16 nM.

Q: Which IC50 does the source give for `Cc1cc(N)nc(C)c1CNC(=O)c1ncc(Cc2ccccc2)o1` [Example 7, N-((6-amino-2,4-dimethylpyridin-3-yl)methyl)-5-benzyloxazole-2-carboxamide] here?
A: Its IC50 is 2030 nM.
